In test [1] the target is T1, GLP-1 receptor (Homo sapiens, UniProt P43220).
Description: After being incubated at room temperature for 2 hours, the solution was filtered through a unifilter 96GF/C plate (Perkin-Elmer) pretreated with 1% polyethylenimine containing 0.5% BSA, washed with 25 mM HEPES buffer solution (pH 7.4) containing 0.5% BSA, and radioactivity remained on the filter was measured by a gamma counter (Top Counter; Perkin-Elmer).
Test [2] addresses T1, GLP-1 receptor. Briefly: Assay for production of cAMP.
Description: Assay for Production of cAMP
After stirring at room temperature for an hour, the cells were lysed with Triton X-100 (final concentration: 1%).
Quantity of cAMP was determined using cAMP Femtomolar Kit (CIS Bio International). The reaction solution (1 μL) was moved to a new 384-well plate and diluted by adding 9 μL of dilution buffer. Next, each 5 μL of cAMP-XL665 solution and anti-cAMP cryptate solution of the Kit was added, the mixture was incubated at room temperature for an hour, and time-resolved fluorescence was measured using RUBYstar (BMG LABTECH).

Peptide text beside a SMILES is read from it. * marks the point of attachment. X1 = CC(=O)N[C@@H]1[C@@H](O)[C@H](O[C@@H]2O[C@H](CO)[C@H](O)[C@H](O)[C@H]2O)[C@@H](CO)O[C@H]1N*

T1 sequence (P43220 24-463, species assumed): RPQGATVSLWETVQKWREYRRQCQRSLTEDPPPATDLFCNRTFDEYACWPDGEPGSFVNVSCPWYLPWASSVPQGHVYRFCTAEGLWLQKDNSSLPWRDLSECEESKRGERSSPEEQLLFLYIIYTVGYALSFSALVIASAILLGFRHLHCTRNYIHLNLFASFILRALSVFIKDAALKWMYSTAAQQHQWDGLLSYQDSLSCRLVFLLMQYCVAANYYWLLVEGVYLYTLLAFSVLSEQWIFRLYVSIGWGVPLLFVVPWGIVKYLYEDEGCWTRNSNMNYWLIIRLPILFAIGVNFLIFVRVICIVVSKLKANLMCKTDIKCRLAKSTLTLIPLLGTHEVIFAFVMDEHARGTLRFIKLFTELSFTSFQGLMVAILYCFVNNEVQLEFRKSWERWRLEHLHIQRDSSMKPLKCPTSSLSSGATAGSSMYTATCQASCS

What is called IC50 is the concentration needed to halve the response being measured. A lower IC50 goes with greater potency in that assay. A word on the EC50: it is the concentration giving half of the maximal effect. A low value points to greater potency. With `CC[C@H](C)[C@H](NC(=O)[C@H](Cc1ccccc1)NC(=O)[C@H](CCC(=O)O)NC(=O)[C@H](CCCCN)NC(=O)[C@H](C)NC(=O)[C@H](C)NC(=O)[C@H](CCC(N)=O)NC(=O)CNC(=O)[C@H](CCC(=O)O)NC(=O)[C@H](CC(C)C)NC(=O)[C@H](Cc1ccc(O)cc1)NC(=O)[C@H](CO)NC(=O)[C@H](CO)NC(=O)[C@@H](NC(=O)[C@H](CC(=O)O)NC(=O)[C@H](CO)NC(=O)[C@@H](NC(=O)[C@H](Cc1ccccc1)NC(=O)[C@@H](NC(=O)CNC(=O)[C@H](CCC(=O)O)NC(=O)[C@H](C)NC(=O)[C@@H](N)Cc1c[nH]cn1)[C@@H](C)O)[C@@H](C)O)C(C)C)C(=O)N[C@@H](C)C(=O)N[C@@H](Cc1c[nH]c2ccccc12)C(=O)N[C@@H](CC(C)C)C(=O)N[C@H](C(=O)N[C@@H](CC(=O)N[C@@H]1O[C@H](CO)[C@@H](O)[C@H](O)[C@H]1NC(C)=O)C(=O)NCC(=O)N[C@@H](CCCNC(=N)N)C(=O)N[C@@H](CC(=O)N[C@@H]1O[C@H](CO)[C@@H](O)[C@H](O)[C@H]1NC(C)=O)C(N)=O)C(C)C` [GL3437NG], the midpoint of inhibition at GLP-1 receptor [1], the IC50, lay at 0.9 nM. In addition, on GLP-1 receptor [2], the EC50 was 0.11 nM.
For `CC[C@H](C)[C@H](NC(=O)[C@H](Cc1ccccc1)NC(=O)[C@H](CCC(=O)O)NC(=O)[C@H](CCCCN)NC(=O)[C@H](C)NC(=O)[C@H](C)NC(=O)[C@H](CCC(N)=O)NC(=O)CNC(=O)[C@H](CCC(=O)O)NC(=O)[C@H](CC(C)C)NC(=O)[C@H](Cc1ccc(O)cc1)NC(=O)[C@H](CO)NC(=O)[C@H](CO)NC(=O)[C@@H](NC(=O)[C@H](CC(=O)O)NC(=O)[C@H](CO)NC(=O)[C@@H](NC(=O)[C@H](Cc1ccccc1)NC(=O)[C@@H](NC(=O)CNC(=O)[C@H](CCC(=O)O)NC(=O)[C@H](C)NC(=O)[C@@H](N)Cc1c[nH]cn1)[C@@H](C)O)[C@@H](C)O)C(C)C)C(=O)N[C@@H](C)C(=O)N[C@@H](Cc1c[nH]c2ccccc12)C(=O)N[C@@H](CC(C)C)C(=O)N[C@H](C(=O)N[C@@H](CC(=O)N[C@@H]1O[C@H](CO)[C@@H](O)[C@H](O)[C@H]1NC(C)=O)C(=O)NCC(=O)N[C@@H](CCCNC(=N)N)C(N)=O)C(C)C` [GL34NG], in that order: 0.85 nM and 0.17 nM.
Taken in the same sequence, the figures for `CC[C@H](C)[C@H](NC(=O)[C@H](Cc1ccccc1)NC(=O)[C@H](CCC(=O)O)NC(=O)[C@H](CCCCN)NC(=O)[C@H](C)NC(=O)[C@H](C)NC(=O)[C@H](CCC(N)=O)NC(=O)CNC(=O)[C@H](CCC(=O)O)NC(=O)[C@H](CC(C)C)NC(=O)[C@H](Cc1ccc(O)cc1)NC(=O)[C@H](CO)NC(=O)[C@H](CO)NC(=O)[C@@H](NC(=O)[C@H](CC(=O)O)NC(=O)[C@H](CO)NC(=O)[C@@H](NC(=O)[C@H](Cc1ccccc1)NC(=O)[C@@H](NC(=O)CNC(=O)[C@H](CCC(=O)O)NC(=O)[C@H](C)NC(=O)[C@@H](N)Cc1c[nH]cn1)[C@@H](C)O)[C@@H](C)O)C(C)C)C(=O)N[C@@H](C)C(=O)N[C@@H](Cc1c[nH]c2ccccc12)C(=O)N[C@@H](CC(C)C)C(=O)N[C@H](C(=O)N[C@@H](CC(=O)N[C@@H]1O[C@H](CO)[C@@H](O[C@@H]2O[C@H](CO[C@]3(C(=O)O)C[C@H](O)[C@@H](NC(C)=O)[C@H]([C@H](O)[C@H](O)CO)O3)[C@H](O)[C@H](O)[C@H]2O)[C@H](O)[C@H]1NC(C)=O)C(=O)NCC(=O)N[C@@H](CCCNC(=N)N)C(=O)N[C@@H](CC(=O)N[C@@H]1O[C@H](CO)[C@@H](O[C@@H]2O[C@H](CO[C@]3(C(=O)O)C[C@H](O)[C@@H](NC(C)=O)[C@H]([C@H](O)[C@H](O)CO)O3)[C@H](O)[C@H](O)[C@H]2O)[C@H](O)[C@H]1NC(C)=O)C(N)=O)C(C)C` [GL3437NS6] were 3 nM and 0.2 nM.
On GLP-1 receptor [1], `CC[C@H](C)[C@H](NC(=O)[C@H](Cc1ccccc1)NC(=O)[C@H](CCC(=O)O)NC(=O)[C@H](CCCCN)NC(=O)[C@H](C)NC(=O)[C@H](C)NC(=O)[C@H](CCC(N)=O)NC(=O)CNC(=O)[C@H](CCC(=O)O)NC(=O)[C@H](CC(C)C)NC(=O)[C@H](Cc1ccc(O)cc1)NC(=O)[C@H](CO)NC(=O)[C@H](CO)NC(=O)[C@@H](NC(=O)[C@H](CC(=O)O)NC(=O)[C@H](CO)NC(=O)[C@@H](NC(=O)[C@H](Cc1ccccc1)NC(=O)[C@@H](NC(=O)CNC(=O)[C@H](CCC(=O)O)NC(=O)[C@H](C)NC(=O)[C@@H](N)Cc1c[nH]cn1)[C@@H](C)O)[C@@H](C)O)C(C)C)C(=O)N[C@@H](C)C(=O)N[C@@H](Cc1c[nH]c2ccccc12)C(=O)N[C@@H](CC(C)C)C(=O)N[C@H](C(=O)N[C@@H](CC(=O)N[C@@H]1O[C@H](CO)[C@@H](O[C@@H]2O[C@H](CO)[C@H](O)[C@H](O)[C@H]2O)[C@H](O)[C@H]1NC(C)=O)C(=O)NCC(=O)N[C@@H](CCCNC(=N)N)C(N)=O)C(C)C` [GL34NL] gave an IC50 of 0.76 nM. Further, at GLP-1 receptor [2], a half-maximal effect (EC50) was put at 0.11 nM.
Taken in the same sequence, the figures for `CC[C@H](C)[C@H](NC(=O)[C@H](Cc1ccccc1)NC(=O)[C@H](CCC(=O)O)NC(=O)[C@H](CC(=O)N[C@@H]1O[C@H](CO)[C@@H](O[C@@H]2O[C@H](CO[C@]3(C(=O)O)C[C@H](O)[C@@H](NC(C)=O)[C@H]([C@H](O)[C@H](O)CO)O3)[C@H](O)[C@H](O)[C@H]2O)[C@H](O)[C@H]1NC(C)=O)NC(=O)[C@H](C)NC(=O)[C@H](C)NC(=O)[C@H](CCC(N)=O)NC(=O)CNC(=O)[C@H](CCC(=O)O)NC(=O)[C@H](CC(C)C)NC(=O)[C@H](Cc1ccc(O)cc1)NC(=O)[C@H](CO)NC(=O)[C@H](CO)NC(=O)[C@@H](NC(=O)[C@H](CC(=O)O)NC(=O)[C@H](CO)NC(=O)[C@@H](NC(=O)[C@H](Cc1ccccc1)NC(=O)[C@@H](NC(=O)CNC(=O)[C@H](CCC(=O)O)NC(=O)[C@H](C)NC(=O)[C@@H](N)Cc1c[nH]cn1)[C@@H](C)O)[C@@H](C)O)C(C)C)C(=O)N[C@@H](C)C(=O)N[C@@H](Cc1c[nH]c2ccccc12)C(=O)N[C@@H](CC(C)C)C(=O)N[C@H](C(=O)N[C@@H](CCCCN)C(=O)NCC(=O)N[C@@H](CCCNC(=N)N)C(N)=O)C(C)C` [GL26NS6] were 2.9 nM and 0.92 nM.
Regarding `CC[C@H](C)[C@H](NC(=O)[C@H](Cc1ccccc1)NC(=O)[C@H](CCC(=O)O)NC(=O)[C@H](CCCCN)NC(=O)[C@H](C)NC(=O)[C@H](C)NC(=O)[C@H](CCC(N)=O)NC(=O)CNC(=O)[C@H](CCC(=O)O)NC(=O)[C@H](CC(C)C)NC(=O)[C@H](Cc1ccc(O)cc1)NC(=O)[C@H](CO)NC(=O)[C@H](CO)NC(=O)[C@@H](NC(=O)[C@H](CC(=O)O)NC(=O)[C@H](CO)NC(=O)[C@@H](NC(=O)[C@H](Cc1ccccc1)NC(=O)[C@@H](NC(=O)CNC(=O)[C@H](CCC(=O)O)NC(=O)[C@H](C)NC(=O)[C@@H](N)Cc1c[nH]cn1)[C@@H](C)O)[C@@H](C)O)C(C)C)C(=O)N[C@@H](C)C(=O)N[C@@H](Cc1c[nH]c2ccccc12)C(=O)N[C@@H](CC(C)C)C(=O)N[C@H](C(=O)N[C@@H](CSCC(=O)N[C@@H](CC(=O)N[C@@H]1O[C@H](CO)[C@@H](O[C@@H]2O[C@H](CO)[C@@H](O[C@@H]3O[C@H](CO[C@H]4O[C@H](CO)[C@@H](O)[C@H](O)[C@@H]4O[C@@H]4O[C@H](CO)[C@@H](O[C@@H]5O[C@H](CO[C@]6(C(=O)O)C[C@H](O)[C@@H](NC(C)=O)[C@H]([C@H](O)[C@H](O)CO)O6)[C@H](O)[C@H](O)[C@H]5O)[C@H](O)[C@H]4NC(C)=O)[C@@H](O)[C@H](O[C@H]4O[C@H](CO)[C@@H](O)[C@H](O)[C@@H]4O[C@@H]4O[C@H](CO)[C@@H](O[C@@H]5O[C@H](CO[C@]6(C(=O)O)C[C@H](O)[C@@H](NC(C)=O)[C@H]([C@H](O)[C@H](O)CO)O6)[C@H](O)[C@H](O)[C@H]5O)[C@H](O)[C@H]4NC(C)=O)[C@@H]3O)[C@H](O)[C@H]2NC(C)=O)[C@H](O)[C@H]1NC(C)=O)C(=O)O)C(=O)NCC(=O)N[C@@H](CCCNC(=N)N)C(=O)N[C@@H](CSCC(=O)N[C@@H](CC(=O)N[C@@H]1O[C@H](CO)[C@@H](O[C@@H]2O[C@H](CO)[C@@H](O[C@@H]3O[C@H](CO[C@H]4O[C@H](CO)[C@@H](O)[C@H](O)[C@@H]4O[C@@H]4O[C@H](CO)[C@@H](O[C@@H]5O[C@H](CO[C@]6(C(=O)O)C[C@H](O)[C@@H](NC(C)=O)[C@H]([C@H](O)[C@H](O)CO)O6)[C@H](O)[C@H](O)[C@H]5O)[C@H](O)[C@H]4NC(C)=O)[C@@H](O)[C@H](O[C@H]4O[C@H](CO)[C@@H](O)[C@H](O)[C@@H]4O[C@@H]4O[C@H](CO)[C@@H](O[C@@H]5O[C@H](CO[C@]6(C(=O)O)C[C@H](O)[C@@H](NC(C)=O)[C@H]([C@H](O)[C@H](O)CO)O6)[C@H](O)[C@H](O)[C@H]5O)[C@H](O)[C@H]4NC(C)=O)[C@@H]3O)[C@H](O)[C@H]2NC(C)=O)[C@H](O)[C@H]1NC(C)=O)C(=O)O)C(N)=O)C(C)C` [GL3437CE1], half-maximal inhibition on GLP-1 receptor [1] (IC50) was put at 30 nM. Also, at GLP-1 receptor [2], the midpoint of the response, the EC50, lay at 4.1 nM.
For `CC[C@H](C)[C@H](NC(=O)[C@H](Cc1ccccc1)NC(=O)[C@H](CCC(=O)O)NC(=O)[C@H](CCCCN)NC(=O)[C@H](C)NC(=O)[C@H](C)NC(=O)[C@H](CCC(N)=O)NC(=O)CNC(=O)[C@H](CCC(=O)O)NC(=O)[C@H](CC(C)C)NC(=O)[C@H](CC(=O)N[C@@H]1O[C@H](CO)[C@@H](O[C@@H]2O[C@H](CO)[C@H](O)[C@H](O)[C@H]2O)[C@H](O)[C@H]1NC(C)=O)NC(=O)[C@H](CO)NC(=O)[C@H](CO)NC(=O)[C@@H](NC(=O)[C@H](CC(=O)O)NC(=O)[C@H](CO)NC(=O)[C@@H](NC(=O)[C@H](Cc1ccccc1)NC(=O)[C@@H](NC(=O)CNC(=O)[C@H](CCC(=O)O)NC(=O)[C@H](C)NC(=O)[C@@H](N)Cc1c[nH]cn1)[C@@H](C)O)[C@@H](C)O)C(C)C)C(=O)N[C@@H](C)C(=O)N[C@@H](Cc1c[nH]c2ccccc12)C(=O)N[C@@H](CC(C)C)C(=O)N[C@H](C(=O)N[C@@H](CCCCN)C(=O)NCC(=O)N[C@@H](CCCNC(=N)N)C(N)=O)C(C)C` [GL19NL] (H-HAEGTFTSDVSSD(X1)LEGQAAKEFIAWLVKGR-NH2; N-terminus assumed), in that order: 38 nM and 8.3 nM.

These data come from patent US20100016547A1, “Glycosilated Peptide and Medicine Comprising It as an Effective Ingredient” (priority 2005, published 2010).
